Data: publication PMC5821110 (Cancer immunology research, 2017)

Assays:
HLA-A2 = assay: Peptide binding affinity: stabilization of HLA-A2 on TAP-deficient T2 cells; details: stabilization (normalized mean fluorescence intensity) of HLA-A2 on TAP-deficient T2 cells by test peptide relative to a non-binding peptide; six hours incubation; flow cytometry
[1] = test system: E.G7-OVA PD-L1^high tumors; assay: Tumor treatment study: peptide immunization after OT-1 adoptive transfer; format: in vivo, C57BL/6 mice; details: tumors removed on day 40, flow cytometry; 100 µg peptide in CFA

## FLQGISPKA [RF-IA]
HLA-A2
  Observed relative binding: 4.78

## FLQGISPKI [RF]
HLA-A2
  Observed relative binding: 4.97

## FLQGISPKV [RF-IV]
HLA-A2
  Observed relative binding: 4.25

## RAQGISPKI [LA]
HLA-A2
  Observed relative binding: 1.31

## RIQGISPKI [LI]
HLA-A2
  Observed relative binding: 2.34

## RLQGISPKA [IA]
HLA-A2
  Observed relative binding: 3.79

## RLQGISPKI [Nat]
HLA-A2
  Observed relative binding: 3.61

## RLQGISPKL [IL]
HLA-A2
  Observed relative binding: 3.89

## RLQGISPKP [IP]
HLA-A2
  Observed relative binding: 1.07

## RLQGISPKV [IV]
HLA-A2
  Observed relative binding: 3.88

## SIINTEKL [FT]
[1]
  Number of CD8 TILs (percent of CD45^+ cells) compared to high-affinity vaccination: significantly increased
